From ChEMBL document CHEMBL3991601, “The target landscape of clinical kinase drugs” (Science, 2017)
Calls of active or inactive are those of the source.

Legend:
[1] = target: T1, Mitogen-activated protein kinase kinase kinase 3 (Homo sapiens, UniProt Q99759)
T1 sequence (Q99759 whole entry): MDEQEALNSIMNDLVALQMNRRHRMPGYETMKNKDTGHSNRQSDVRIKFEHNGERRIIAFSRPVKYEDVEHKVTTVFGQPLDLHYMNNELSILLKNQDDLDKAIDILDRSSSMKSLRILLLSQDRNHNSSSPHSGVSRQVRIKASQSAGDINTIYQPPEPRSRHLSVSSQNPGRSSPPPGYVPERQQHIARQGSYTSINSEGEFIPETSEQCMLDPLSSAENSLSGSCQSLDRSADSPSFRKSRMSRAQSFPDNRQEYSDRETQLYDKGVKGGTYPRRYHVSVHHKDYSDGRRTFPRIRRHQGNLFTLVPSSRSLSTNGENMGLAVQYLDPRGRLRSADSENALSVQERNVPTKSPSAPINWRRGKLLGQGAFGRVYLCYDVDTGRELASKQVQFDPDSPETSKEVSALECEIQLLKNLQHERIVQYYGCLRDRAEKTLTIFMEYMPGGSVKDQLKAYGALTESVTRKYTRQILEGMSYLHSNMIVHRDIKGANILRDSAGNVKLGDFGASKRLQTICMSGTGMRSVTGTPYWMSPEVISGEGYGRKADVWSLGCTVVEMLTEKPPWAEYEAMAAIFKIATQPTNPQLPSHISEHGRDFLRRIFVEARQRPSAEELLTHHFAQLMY

ADP/ATP translocase 3 = target: T2, ADP/ATP translocase 3 (Homo sapiens, UniProt P12236)
T2 sequence (P12236 whole entry): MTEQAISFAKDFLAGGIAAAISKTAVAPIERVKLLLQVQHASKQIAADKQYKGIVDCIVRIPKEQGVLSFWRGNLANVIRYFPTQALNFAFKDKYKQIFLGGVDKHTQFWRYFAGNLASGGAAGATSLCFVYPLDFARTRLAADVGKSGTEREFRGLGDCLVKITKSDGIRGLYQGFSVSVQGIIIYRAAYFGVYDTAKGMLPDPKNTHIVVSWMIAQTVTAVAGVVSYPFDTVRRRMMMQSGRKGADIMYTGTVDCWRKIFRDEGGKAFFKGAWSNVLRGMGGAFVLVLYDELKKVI

dCTP pyrophosphatase 1 = target: T3, dCTP pyrophosphatase 1 (Homo sapiens, UniProt Q9H773)
T3 sequence (Q9H773 whole entry): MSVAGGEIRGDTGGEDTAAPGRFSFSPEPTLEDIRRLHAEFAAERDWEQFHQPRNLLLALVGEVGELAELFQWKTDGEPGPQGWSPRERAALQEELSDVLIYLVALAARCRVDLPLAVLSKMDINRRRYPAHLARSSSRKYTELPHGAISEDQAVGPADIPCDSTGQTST

[2] = target: T4, Dual specificity mitogen-activated protein kinase kinase 3 (Homo sapiens, UniProt P46734)
T4 sequence (P46734 whole entry): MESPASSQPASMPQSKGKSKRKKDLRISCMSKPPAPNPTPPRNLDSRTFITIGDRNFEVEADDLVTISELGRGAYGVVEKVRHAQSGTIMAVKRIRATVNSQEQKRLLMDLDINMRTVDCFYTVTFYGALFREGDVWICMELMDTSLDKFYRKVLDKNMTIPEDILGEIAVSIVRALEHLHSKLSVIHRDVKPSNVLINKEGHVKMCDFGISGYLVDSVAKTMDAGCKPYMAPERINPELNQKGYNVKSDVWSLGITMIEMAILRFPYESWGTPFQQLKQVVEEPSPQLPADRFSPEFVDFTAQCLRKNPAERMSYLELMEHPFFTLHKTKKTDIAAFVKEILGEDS

[3] = target: Mitogen-activated protein kinase kinase kinase kinase 4 (Homo sapiens, UniProt O95819)
[4] = target: 5'-AMP-activated protein kinase catalytic subunit alpha-1 (Homo sapiens, UniProt Q13131)
[5] = target: Tyrosine-protein kinase BTK (Homo sapiens, UniProt Q06187)
[6] = target: Citron Rho-interacting kinase (Homo sapiens, UniProt O14578)
[7] = target: RAC-alpha serine/threonine-protein kinase (Homo sapiens, UniProt P31749)
DNA topoisomerase 2-beta = DNA topoisomerase 2-beta (Homo sapiens, UniProt Q02880)
Wee1-like protein kinase = Wee1-like protein kinase (Homo sapiens, UniProt P30291)
[8] = target: T5, Dynamin-like GTPase OPA1, mitochondrial (Homo sapiens, UniProt O60313)
T5 sequence (O60313 whole entry): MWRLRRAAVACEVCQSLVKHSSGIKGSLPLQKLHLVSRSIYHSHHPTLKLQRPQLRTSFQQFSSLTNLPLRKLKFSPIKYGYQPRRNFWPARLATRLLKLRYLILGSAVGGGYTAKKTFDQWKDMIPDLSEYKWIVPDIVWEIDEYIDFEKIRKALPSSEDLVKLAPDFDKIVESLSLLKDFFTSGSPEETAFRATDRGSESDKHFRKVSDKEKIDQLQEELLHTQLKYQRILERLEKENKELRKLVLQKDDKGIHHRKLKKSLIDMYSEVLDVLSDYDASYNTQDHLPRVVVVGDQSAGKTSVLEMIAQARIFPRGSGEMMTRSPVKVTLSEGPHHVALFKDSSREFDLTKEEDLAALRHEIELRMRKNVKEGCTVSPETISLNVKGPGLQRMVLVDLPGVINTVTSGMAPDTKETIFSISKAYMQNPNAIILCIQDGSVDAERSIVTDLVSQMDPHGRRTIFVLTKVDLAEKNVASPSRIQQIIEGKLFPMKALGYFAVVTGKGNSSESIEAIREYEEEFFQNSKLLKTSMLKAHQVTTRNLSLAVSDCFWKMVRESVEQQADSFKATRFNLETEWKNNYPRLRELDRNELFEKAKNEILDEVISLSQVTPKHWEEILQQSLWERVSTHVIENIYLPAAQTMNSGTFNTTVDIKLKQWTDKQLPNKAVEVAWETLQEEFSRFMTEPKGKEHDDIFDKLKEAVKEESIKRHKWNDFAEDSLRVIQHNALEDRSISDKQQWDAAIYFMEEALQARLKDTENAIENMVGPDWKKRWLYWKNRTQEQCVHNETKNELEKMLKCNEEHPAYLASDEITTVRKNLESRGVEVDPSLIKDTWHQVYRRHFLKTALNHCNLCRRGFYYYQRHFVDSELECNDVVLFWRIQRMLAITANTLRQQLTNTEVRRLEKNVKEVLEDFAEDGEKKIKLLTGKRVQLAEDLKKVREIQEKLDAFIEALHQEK

[9] = target: Inosine-5'-monophosphate dehydrogenase 2 (Homo sapiens, UniProt P12268)
Note: in the data inactive means no Kd found up to 30 µM.

Chain of DNA topoisomerase 2-beta (Q02880 whole entry): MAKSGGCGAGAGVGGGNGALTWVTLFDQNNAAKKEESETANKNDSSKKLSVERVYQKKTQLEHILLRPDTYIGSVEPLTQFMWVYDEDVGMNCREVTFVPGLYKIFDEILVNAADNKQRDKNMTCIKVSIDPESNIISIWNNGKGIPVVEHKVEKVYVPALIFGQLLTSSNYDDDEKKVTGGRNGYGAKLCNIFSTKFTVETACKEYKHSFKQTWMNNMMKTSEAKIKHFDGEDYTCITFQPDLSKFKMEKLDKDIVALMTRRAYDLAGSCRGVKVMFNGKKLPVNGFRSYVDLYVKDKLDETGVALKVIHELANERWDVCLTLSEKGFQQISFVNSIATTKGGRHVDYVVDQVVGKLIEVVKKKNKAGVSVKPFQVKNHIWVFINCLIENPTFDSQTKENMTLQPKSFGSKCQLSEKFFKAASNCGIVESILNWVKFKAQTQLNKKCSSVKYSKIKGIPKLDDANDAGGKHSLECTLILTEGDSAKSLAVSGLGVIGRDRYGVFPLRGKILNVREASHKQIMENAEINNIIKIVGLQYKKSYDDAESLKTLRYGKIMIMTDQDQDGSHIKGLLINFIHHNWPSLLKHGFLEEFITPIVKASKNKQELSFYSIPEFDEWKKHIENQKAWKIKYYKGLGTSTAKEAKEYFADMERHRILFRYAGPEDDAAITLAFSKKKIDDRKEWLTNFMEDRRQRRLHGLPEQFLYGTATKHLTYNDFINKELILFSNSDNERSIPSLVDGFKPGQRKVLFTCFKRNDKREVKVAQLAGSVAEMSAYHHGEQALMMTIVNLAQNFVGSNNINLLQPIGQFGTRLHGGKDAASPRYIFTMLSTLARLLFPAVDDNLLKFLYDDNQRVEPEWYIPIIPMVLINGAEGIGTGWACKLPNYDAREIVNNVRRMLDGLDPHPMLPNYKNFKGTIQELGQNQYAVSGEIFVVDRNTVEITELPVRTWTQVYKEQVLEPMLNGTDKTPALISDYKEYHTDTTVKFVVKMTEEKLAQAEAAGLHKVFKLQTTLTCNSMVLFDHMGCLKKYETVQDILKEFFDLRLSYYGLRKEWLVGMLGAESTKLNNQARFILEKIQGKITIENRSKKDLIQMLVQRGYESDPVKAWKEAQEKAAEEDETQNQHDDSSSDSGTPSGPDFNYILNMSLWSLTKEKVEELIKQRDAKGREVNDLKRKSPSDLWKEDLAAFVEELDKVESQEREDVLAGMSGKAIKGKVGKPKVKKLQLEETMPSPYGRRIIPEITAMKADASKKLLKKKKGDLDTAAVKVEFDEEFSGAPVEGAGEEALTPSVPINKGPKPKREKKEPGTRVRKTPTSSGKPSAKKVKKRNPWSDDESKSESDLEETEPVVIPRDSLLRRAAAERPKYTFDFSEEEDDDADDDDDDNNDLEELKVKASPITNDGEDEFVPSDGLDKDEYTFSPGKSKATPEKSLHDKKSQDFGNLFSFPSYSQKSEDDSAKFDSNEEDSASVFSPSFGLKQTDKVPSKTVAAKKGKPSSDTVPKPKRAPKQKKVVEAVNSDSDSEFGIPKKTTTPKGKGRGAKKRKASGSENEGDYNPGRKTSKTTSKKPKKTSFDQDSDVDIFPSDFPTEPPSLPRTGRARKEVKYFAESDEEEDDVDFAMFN
Chain of Wee1-like protein kinase (P30291 whole entry): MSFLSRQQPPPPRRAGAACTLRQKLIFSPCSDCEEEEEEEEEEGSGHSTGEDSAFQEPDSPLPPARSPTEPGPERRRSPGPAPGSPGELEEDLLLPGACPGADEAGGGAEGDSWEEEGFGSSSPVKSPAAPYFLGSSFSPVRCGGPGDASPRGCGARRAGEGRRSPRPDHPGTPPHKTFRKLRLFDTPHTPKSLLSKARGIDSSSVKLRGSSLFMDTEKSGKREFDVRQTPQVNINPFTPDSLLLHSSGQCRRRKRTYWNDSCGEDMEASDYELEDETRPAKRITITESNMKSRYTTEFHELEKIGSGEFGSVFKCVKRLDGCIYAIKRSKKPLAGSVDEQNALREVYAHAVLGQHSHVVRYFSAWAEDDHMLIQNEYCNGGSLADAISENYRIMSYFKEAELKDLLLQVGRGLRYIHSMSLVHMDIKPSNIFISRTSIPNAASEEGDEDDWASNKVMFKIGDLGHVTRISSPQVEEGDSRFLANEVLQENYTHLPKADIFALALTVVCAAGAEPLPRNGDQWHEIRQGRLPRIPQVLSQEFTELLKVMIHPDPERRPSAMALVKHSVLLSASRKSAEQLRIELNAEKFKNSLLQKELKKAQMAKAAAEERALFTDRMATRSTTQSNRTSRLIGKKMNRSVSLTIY
Chain of Citron Rho-interacting kinase (O14578 whole entry): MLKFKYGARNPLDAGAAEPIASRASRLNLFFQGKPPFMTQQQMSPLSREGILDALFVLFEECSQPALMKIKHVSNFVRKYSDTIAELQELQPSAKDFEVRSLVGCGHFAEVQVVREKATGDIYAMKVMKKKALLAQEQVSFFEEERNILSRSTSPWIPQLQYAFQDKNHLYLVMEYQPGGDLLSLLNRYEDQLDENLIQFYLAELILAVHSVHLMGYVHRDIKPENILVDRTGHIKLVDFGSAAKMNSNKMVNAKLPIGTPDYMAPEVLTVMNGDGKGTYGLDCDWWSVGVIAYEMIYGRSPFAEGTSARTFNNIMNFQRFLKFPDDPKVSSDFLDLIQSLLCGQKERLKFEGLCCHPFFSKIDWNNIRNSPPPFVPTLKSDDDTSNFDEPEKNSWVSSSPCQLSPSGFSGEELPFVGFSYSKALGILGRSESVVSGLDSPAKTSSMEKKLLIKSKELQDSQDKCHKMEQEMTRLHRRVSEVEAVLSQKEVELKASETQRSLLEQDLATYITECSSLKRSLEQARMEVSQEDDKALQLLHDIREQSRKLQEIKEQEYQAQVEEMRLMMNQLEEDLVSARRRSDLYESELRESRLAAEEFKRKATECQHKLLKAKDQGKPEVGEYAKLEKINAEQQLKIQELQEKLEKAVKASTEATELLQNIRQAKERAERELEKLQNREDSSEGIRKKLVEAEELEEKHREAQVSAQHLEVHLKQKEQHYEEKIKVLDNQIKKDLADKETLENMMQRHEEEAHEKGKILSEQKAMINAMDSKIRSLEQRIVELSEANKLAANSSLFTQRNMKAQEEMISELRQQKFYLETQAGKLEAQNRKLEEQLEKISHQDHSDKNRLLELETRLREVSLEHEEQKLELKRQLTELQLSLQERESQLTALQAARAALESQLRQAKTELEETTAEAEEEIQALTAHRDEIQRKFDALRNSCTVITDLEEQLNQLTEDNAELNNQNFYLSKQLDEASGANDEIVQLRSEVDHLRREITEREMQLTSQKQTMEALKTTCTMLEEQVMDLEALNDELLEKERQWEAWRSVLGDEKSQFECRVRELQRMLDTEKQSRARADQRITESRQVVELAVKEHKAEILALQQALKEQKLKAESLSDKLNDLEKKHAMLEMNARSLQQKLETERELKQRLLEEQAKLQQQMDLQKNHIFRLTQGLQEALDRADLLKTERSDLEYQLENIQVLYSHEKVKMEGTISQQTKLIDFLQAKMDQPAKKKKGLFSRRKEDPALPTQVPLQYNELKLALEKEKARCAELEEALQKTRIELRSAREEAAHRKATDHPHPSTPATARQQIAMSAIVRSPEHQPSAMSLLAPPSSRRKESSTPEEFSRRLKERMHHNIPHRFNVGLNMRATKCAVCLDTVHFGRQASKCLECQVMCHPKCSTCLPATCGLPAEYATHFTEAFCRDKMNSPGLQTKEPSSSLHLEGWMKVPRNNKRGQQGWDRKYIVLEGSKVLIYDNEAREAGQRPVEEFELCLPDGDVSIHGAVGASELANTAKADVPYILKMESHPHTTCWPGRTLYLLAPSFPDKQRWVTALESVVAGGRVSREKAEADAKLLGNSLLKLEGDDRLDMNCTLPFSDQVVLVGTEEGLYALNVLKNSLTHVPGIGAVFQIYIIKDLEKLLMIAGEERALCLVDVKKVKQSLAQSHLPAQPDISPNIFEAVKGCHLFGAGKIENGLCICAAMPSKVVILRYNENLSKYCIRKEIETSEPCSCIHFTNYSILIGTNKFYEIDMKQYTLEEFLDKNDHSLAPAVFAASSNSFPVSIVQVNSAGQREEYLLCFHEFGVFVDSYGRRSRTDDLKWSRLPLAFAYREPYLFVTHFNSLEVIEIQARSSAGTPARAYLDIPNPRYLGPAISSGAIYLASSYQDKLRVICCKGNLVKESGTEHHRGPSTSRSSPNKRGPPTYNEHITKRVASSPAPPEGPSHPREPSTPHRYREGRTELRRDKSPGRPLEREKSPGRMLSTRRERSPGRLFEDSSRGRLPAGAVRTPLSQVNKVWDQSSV
Chain of RAC-alpha serine/threonine-protein kinase (P31749 whole entry): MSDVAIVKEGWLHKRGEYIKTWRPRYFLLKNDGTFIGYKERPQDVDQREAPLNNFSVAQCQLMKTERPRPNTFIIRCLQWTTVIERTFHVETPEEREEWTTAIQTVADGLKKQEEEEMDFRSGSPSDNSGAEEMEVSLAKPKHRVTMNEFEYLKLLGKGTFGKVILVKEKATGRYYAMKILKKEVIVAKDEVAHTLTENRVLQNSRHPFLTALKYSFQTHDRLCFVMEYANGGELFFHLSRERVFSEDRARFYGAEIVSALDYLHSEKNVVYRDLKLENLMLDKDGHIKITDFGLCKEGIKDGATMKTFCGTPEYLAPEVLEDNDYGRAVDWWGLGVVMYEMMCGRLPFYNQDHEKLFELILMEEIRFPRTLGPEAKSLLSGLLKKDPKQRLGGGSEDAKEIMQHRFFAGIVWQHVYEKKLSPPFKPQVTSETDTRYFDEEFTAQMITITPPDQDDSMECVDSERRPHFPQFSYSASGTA

Kd [1] | Kd (ADP/ATP translocase 3) | Kd (dCTP pyrophosphatase 1) | Kd [2] | Kd [3] | Kd [4] | Kd [5] | Kd [6] | Kd [7] | Kd (DNA topoisomerase 2-beta) | Kd (Wee1-like protein kinase) | Kd [8] | Kd [9] | Compound
0.546 µM (active) | > 30 µM (inactive) | > 30 µM (inactive) | > 30 µM (inactive) | > 30 µM (inactive) | > 30 µM (inactive) | > 30 µM (inactive) |  | > 30 µM (inactive) | > 30 µM (inactive) | > 30 µM (inactive) | > 30 µM (inactive) | > 30 µM (inactive) | COc1cccc(Nc2ncnn3ccc(CN4CC[C@@H](N)[C@H](O)C4)c23)c1 [BMS-690514]
> 30 µM (inactive) | > 30 µM (inactive) | > 30 µM (inactive) |  | > 30 µM (inactive) | > 30 µM (inactive) | > 30 µM (inactive) | > 30 µM (inactive) | > 30 µM (inactive) | 0.148 µM (active) | > 30 µM (inactive) | > 30 µM (inactive) | > 30 µM (inactive) | CC[C@@](C)(Nc1ccnc(-c2c[nH]c3ncccc23)n1)C(=O)NCC(F)(F)F [DECERNOTINIB]
> 30 µM (inactive) | > 30 µM (inactive) | > 30 µM (inactive) | > 30 µM (inactive) | > 30 µM (inactive) | > 30 µM (inactive) | > 30 µM (inactive) | > 30 µM (inactive) | > 30 µM (inactive) | > 30 µM (inactive) |  | > 30 µM (inactive) | > 30 µM (inactive) | O=S(=O)(c1cccc2c(O)nccc12)N1CCCNCC1 [HYDROXYFASUDIL]
> 30 µM (inactive) | > 30 µM (inactive) | > 30 µM (inactive) | > 30 µM (inactive) | > 30 µM (inactive) | > 30 µM (inactive) | > 30 µM (inactive) | > 30 µM (inactive) | > 30 µM (inactive) | > 30 µM (inactive) | > 30 µM (inactive) | > 30 µM (inactive) |  | O[C@H]1CC[C@H](Nc2ncc3nc(Nc4c(F)cc(F)cc4F)n([C@H]4CCOC4)c3n2)CC1 [TANZISERTIB]
> 30 µM (inactive) | > 30 µM (inactive) | > 30 µM (inactive) | > 30 µM (inactive) | > 30 µM (inactive) | > 30 µM (inactive) | > 30 µM (inactive) | > 30 µM (inactive) | > 30 µM (inactive) | > 30 µM (inactive) | > 30 µM (inactive) | > 30 µM (inactive) |  | Cc1cc(-c2cc(OC(=O)c3ccccc3)ccc2Cl)cc2nnc(Nc3ccc(OCCN4CCCC4)cc3)nc12 [TG100-801]

Compound | Kd [1] | Kd (ADP/ATP translocase 3) | Kd (dCTP pyrophosphatase 1) | Kd [2] | Kd [3] | Kd [4] | Kd [5] | Kd [6] | Kd [7] | Kd (DNA topoisomerase 2-beta) | Kd (Wee1-like protein kinase) | Kd [8] | Kd [9]
Cc1c(NC(=O)OC[C@@H]2COCCN2)cn2ncnc(Nc3ccc4c(cnn4Cc4cccc(F)c4)c3)c12 [AC-480] | > 30 µM (inactive) | > 30 µM (inactive) | > 30 µM (inactive) | > 30 µM (inactive) | > 30 µM (inactive) | > 30 µM (inactive) | > 30 µM (inactive) | > 30 µM (inactive) | > 30 µM (inactive) | > 30 µM (inactive) | > 30 µM (inactive) | > 30 µM (inactive) | 
NC[C@@](O)(c1ccc(Cl)cc1)c1ccc(-c2cn[nH]c2)cc1 [AT-13148] | > 30 µM (inactive) |  | > 30 µM (inactive) | > 30 µM (inactive) | > 30 µM (inactive) | > 30 µM (inactive) | > 30 µM (inactive) | > 30 µM (inactive) | > 30 µM (inactive) | > 30 µM (inactive) | > 30 µM (inactive) | > 30 µM (inactive) | > 30 µM (inactive)
C=CCN(/C=C1/C(=O)O[C@H](COC)[C@@]2(C)C1=C(O)C(=O)C1=C2[C@H](OC(C)=O)C[C@]2(C)C(=O)CC[C@@H]12)CC=C [SONOLISIB] | > 30 µM (inactive) | > 30 µM (inactive) | > 30 µM (inactive) | > 30 µM (inactive) | > 30 µM (inactive) | > 30 µM (inactive) | > 30 µM (inactive) | > 30 µM (inactive) | > 30 µM (inactive) | > 30 µM (inactive) | > 30 µM (inactive) | > 30 µM (inactive) | 
